Source: patent US20110021505A1, “Use of sulfonyl-substituted 2-sulfonylaminobenzoic acid N-phenylamides in the treatment of pain” (SANOFI-AVENTIS DEUTSCHLAND GMBH, priority 2007, published 2011)

**Q.** Which melting point does the source give for `COc1cc(NS(=O)(=O)c2ccc(Cl)s2)c(C(=O)Nc2ccc(S(=O)(=O)N(C)Cc3cccnc3)cc2)cc1OC.Cl` here?
**A.** Its melting point is 214 °C.

**Q.** For `O=C(Nc1ccc(S(=O)(=O)N2CCSCC2)cc1)c1cc(Cl)ccc1NS(=O)(=O)c1ccc(Cl)cc1` [Example 15, 5-Chloro-2-(4-chloro-phenylsulfonylamino)-N-(4-(thiomorpholine-4-sulfonyl)-phenyl)-benzamide], which melting point is on record?
**A.** Its melting point is 246 °C.

**Q.** Which melting point does the source give for `Cc1ccc(S(=O)(=O)Nc2ccc(Cl)cc2C(=O)Nc2ccc(S(=O)(=O)N3CCOCC3)cc2)cc1` [Example 57, 5-Chloro-N-(4-(morpholine-4-sulfonyl)-phenyl)-2-(4-methyl-phenylsulfonylamino)-benzamide] here?
**A.** The melting point was 214 °C.

**Q.** For `O=C(Nc1ccc(S(=O)(=O)N2CCS(=O)(=O)CC2)cc1)c1cc(Cl)ccc1NS(=O)(=O)c1ccc(Cl)cc1` [Example 92, 5-Chloro-2-(4-chloro-phenylsulfonylamino)-N-(4-(1,1-dioxo-thiomorpholine-4-sulfonyl)-phenyl)-benzamide], which melting point is on record?
**A.** The melting point was 182 °C.
